From PMC11876601 (Molecular Systems Biology, 2025) come the findings set out here.

Common to all, as to experiment: cells
Holding throughout (parameters): Viability of PDAC cell lines, ATPlite luminescence, 11-dose single-agent curve fit
On the technique in general: ATP-based viability assays read luminescence as a measure of living cells.

One experiment concerns HuP-T4. The following applies: Homo sapiens, HuP-T4, 72 h, read-out: EC50 [nM]. Put shortly: (§1)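 cells (1000 to 5000 per well) seeded 24 h before drug addition in a screen at 0.2% final DMSO. Controls were drug-free wells (negative) and 5 µM staurosporine (positive).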
A further experiment relates to Suit2-07. The settings on record: 72 h, read-out: EC50 [nM]. A digest of the protocol: as §1
A further experiment deals with PANC-1. The settings on record: Homo sapiens, PANC-1, 72 h, read-out: EC50 [nM]. Put shortly: as §1
Another experiment relates to Dan-G. The following applies: 72 h, read-out: EC50 [nM]. A digest of the protocol:
as §1

Another experiment has as its system Colo-357. The settings on record: Homo sapiens, COLO357, 72 h, read-out: EC50 [nM]. A digest of the protocol:
as §1

The next experiment relates to HPDE. The following applies: HPDE, 72 h, read-out: EC50 [nM]. Put shortly: as §1
Another experiment has as its system AsPC-1. The following applies: Homo sapiens, ASPC1, 72 h, read-out: EC50 [nM]. Put shortly:
as §1

In a further experiment the test system is BxPC-3. The following applies: Homo sapiens, BXPC-3, 72 h, read-out: EC50 [nM]. Put shortly:
as §1

A further experiment deals with PaTu-8988-T. The settings on record: Homo sapiens, PaTu 8988t, 72 h, read-out: EC50 [nM]. Put shortly:
as §1

Another experiment relates to MiaPaCa-2. The settings on record: Homo sapiens, MIA PaCa-2, 72 h, read-out: EC50 [nM]. Put shortly: as §1
In a further experiment the test system is Capan-1. The following applies: Homo sapiens, CAPAN-1, 72 h, read-out: EC50 [nM]. Put shortly:
as §1

In the next experiment the test system is FAMPAC. The following applies: 72 h, read-out: EC50 [nM]. Put shortly:
as §1

A further experiment has as its system PSN-1. The settings on record: Homo sapiens, PSN1, 72 h, read-out: EC50 [nM]. Put shortly: as §1

As to `CO[C@H]1C[C@@H]2CC[C@@H](C)[C@@](O)(O2)C(=O)C(=O)N2CCCC[C@H]2C(=O)O[C@H]([C@H](C)C[C@@H]2CC[C@@H](OCCO)[C@H](OC)C2)CC(=O)[C@H](C)/C=C(\C)[C@@H](O)[C@@H](OC)C(=O)[C@H](C)C[C@H](C)/C=C/C=C/C=C/1C` [Certican], the EC50 with HuP-T4 came out at 2.46 nM; in the experiment on Suit2-07, 2610 nM; in the experiment on PANC-1, 171 nM; in the experiment with Dan-G it was 0.21 nM; in the experiment with Colo-357 it was 238 nM; in the experiment on HPDE it was 0.16 nM. Moreover, the EC50 in the experiment on AsPC-1 is 0.14 nM; in the experiment with BxPC-3, 0.09 nM; in the experiment with PaTu-8988-T, 0.1 nM; in the experiment with MiaPaCa-2, 1.84 nM; in the experiment with Capan-1 it was 3520 nM; in the experiment on FAMPAC, 5.43 nM. The EC50 in the experiment on PSN-1 came out at 0.05 nM.

As to `N#CC1(c2ccc(NC(=O)c3cccnc3NCc3ccncc3)cc2)CCCC1` [Apatinib], the EC50 is 283 nM in the experiment with HuP-T4; 1420 nM in the experiment on Suit2-07; 2350 nM with PANC-1; 5380 nM with Dan-G; 4280 nM in the experiment with Colo-357; 7430 nM with HPDE. The EC50 is 452 nM with AsPC-1; 5230 nM in the experiment with BxPC-3; greater than 10000 nM with PaTu-8988-T; greater than 10000 nM in the experiment on MiaPaCa-2; greater than 10000 nM in the experiment on Capan-1; greater than 10000 nM in the experiment with FAMPAC. Moreover, the EC50 in the experiment with PSN-1 is greater than 10000 nM.

`CC[C@@H]1CN(C(=O)NCC(F)(F)F)C[C@@H]1c1cnc2cnc3[nH]ccc3n12` [Upadacitinib]: the EC50 in the experiment with HuP-T4 was 973 nM; with Suit2-07, 6.77 nM; in the experiment with PANC-1 it was 215 nM; in the experiment with Dan-G, 309 nM; with Colo-357, 1.06 nM; with HPDE, 26.9 nM. The EC50 in the experiment on AsPC-1 is 137 nM; in the experiment with BxPC-3, 704 nM; in the experiment with PaTu-8988-T, greater than 10000 nM; with MiaPaCa-2, 1590 nM; with Capan-1 it was 0.18 nM; in the experiment on FAMPAC, 49 nM. Besides, the EC50 in the experiment with PSN-1 was found to be 7050 nM.

In the case of `N#CC[C@H](C1CCCC1)n1cc(-c2ncnc3[nH]ccc23)cn1` [Ruxolitinib], the EC50 in the experiment on HuP-T4 was 212 nM; in the experiment on Suit2-07 it was 1750 nM; with PANC-1, 1370 nM; with Dan-G it was 117 nM; in the experiment with Colo-357, 8280 nM; in the experiment on HPDE it was greater than 10000 nM. In addition, the concentration for a half-maximal effect (EC50) in the experiment with AsPC-1 amounted to 23.6 nM; with BxPC-3, 6970 nM; with PaTu-8988-T it was 13.4 nM; in the experiment on MiaPaCa-2, 1740 nM; in the experiment with Capan-1 it was 0.51 nM; in the experiment on FAMPAC, 9910 nM. Besides, in the experiment on PSN-1, the EC50 came to 2210 nM.

`FC(F)(F)c1ccc(CNc2ccc(Cc3c[nH]c4ncc(Cl)cc34)cn2)cn1` [Pexidartinib]: the concentration giving a half-maximal response (EC50) with HuP-T4 turned out to be 4690 nM; in the experiment with Suit2-07, 1100 nM; with PANC-1, 2210 nM; in the experiment on Dan-G it was 6180 nM; in the experiment on Colo-357, 10100 nM; in the experiment with HPDE it was 10200 nM. The EC50 is 9890 nM in the experiment with AsPC-1; 8880 nM in the experiment with BxPC-3; 46.5 nM with PaTu-8988-T; 2640 nM in the experiment on MiaPaCa-2; greater than 10000 nM with Capan-1; 4000 nM in the experiment on FAMPAC. In addition, the EC50 with PSN-1 came out at 6940 nM.

In the case of `N#CCC1(n2cc(-c3ncnc4[nH]ccc34)cn2)CN(C2CCN(C(=O)c3ccnc(C(F)(F)F)c3F)CC2)C1` [Itacitinib], the EC50 in the experiment with HuP-T4 came to 316 nM; in the experiment on Suit2-07, 72.1 nM; in the experiment on PANC-1, 21.2 nM; with Dan-G, 3820 nM; in the experiment with Colo-357, 75 nM; in the experiment on HPDE it was 873 nM. In addition, the EC50 in the experiment with AsPC-1 was 17.1 nM; in the experiment on BxPC-3, 52.1 nM; in the experiment with PaTu-8988-T, 292 nM; in the experiment with MiaPaCa-2, 770 nM; in the experiment with Capan-1 it was 142 nM; in the experiment on FAMPAC, 1420 nM. Besides, the EC50 with PSN-1 was 124 nM.

For `O=S(=O)(c1cccc2cnccc12)N1CCCNCC1` [Fasudil], the EC50 is 609 nM in the experiment on HuP-T4; 2790 nM with Suit2-07; 5330 nM with PANC-1; 2960 nM in the experiment on Dan-G; 6850 nM with Colo-357; greater than 10000 nM in the experiment on HPDE. The EC50 with AsPC-1 was 2.85 nM; in the experiment on BxPC-3, 805 nM; in the experiment with PaTu-8988-T it was 1140 nM; with MiaPaCa-2, 3390 nM; with Capan-1 it was greater than 10000 nM; with FAMPAC, greater than 10000 nM. Also, the EC50 with PSN-1 came to 0.04 nM.

Turning to `Cc1cc(F)c(C(=O)Nc2cccc(-c3nncn3C(C)C)n2)cc1-n1cnc(C2CC2)c1` [Selonsertib], the EC50 in the experiment on HuP-T4 was 3.85 nM; with Suit2-07, 4310 nM; in the experiment on PANC-1 it was 8800 nM; with Dan-G, 10300 nM; in the experiment on Colo-357, greater than 10000 nM; with HPDE, greater than 10000 nM. The EC50 in the experiment on AsPC-1 was 755 nM; in the experiment on BxPC-3 it was greater than 10000 nM; with PaTu-8988-T, 5440 nM; in the experiment on MiaPaCa-2, 4950 nM; in the experiment with Capan-1, 8570 nM; in the experiment with FAMPAC, greater than 10000 nM. Besides, in the experiment with PSN-1, the EC50 amounted to 6150 nM.

Regarding `Cc1cc(C)c(/C=C2\C(=O)Nc3ccccc32)[nH]1` [Semaxanib], the EC50 was 42.4 nM in the experiment with HuP-T4; 2320 nM with Suit2-07; 66.8 nM with PANC-1; 169 nM in the experiment on Dan-G; 317 nM in the experiment with Colo-357; greater than 10000 nM in the experiment on HPDE. Also, the EC50 was 3330 nM with AsPC-1; 5.83 nM in the experiment with BxPC-3; 815 nM in the experiment on PaTu-8988-T; greater than 10000 nM in the experiment on MiaPaCa-2; 5010 nM in the experiment with Capan-1; 43.5 nM in the experiment on FAMPAC. In the experiment with PSN-1, the EC50 is 127 nM.

In the case of `CCN(CCCOc1ccc2c(Nc3cc(CC(=O)Nc4cccc(F)c4)[nH]n3)ncnc2c1)CCOP(=O)(O)O` [Barasertib], the EC50 in the experiment on HuP-T4 was found to be 56.8 nM; in the experiment on Suit2-07, 3290 nM; with PANC-1 it was 74 nM; with Dan-G it was 296 nM; in the experiment with Colo-357, 852 nM; with HPDE, 74.6 nM. For the same compound, the EC50 in the experiment with AsPC-1 stood at 56.3 nM; in the experiment on BxPC-3, 53.6 nM; in the experiment on PaTu-8988-T it was 10300 nM; in the experiment with MiaPaCa-2 it was 4.24 nM; in the experiment on Capan-1 it was 42 nM; in the experiment with FAMPAC it was 40.1 nM. Further, the half-maximal effective concentration (EC50) with PSN-1 was found to be 32.6 nM.

With `COCCNc1cc(NC(=O)N2CCCc3cc(CN4CCN(C)CC4=O)c(C=O)nc32)ncc1C#N` [Roblitinib], the EC50 in the experiment on HuP-T4 was 60.7 nM; in the experiment with Suit2-07 it was 7.75 nM; with PANC-1, 1060 nM; with Dan-G, 150 nM; in the experiment on Colo-357 it was greater than 10000 nM; in the experiment with HPDE, 0.09 nM. Besides, the EC50 was 0.56 nM in the experiment on AsPC-1; 5220 nM in the experiment with BxPC-3; greater than 10000 nM with PaTu-8988-T; 207 nM in the experiment with MiaPaCa-2; 25.8 nM in the experiment on Capan-1; 7290 nM in the experiment on FAMPAC. In the experiment with PSN-1, the EC50 was 4040 nM.

Consider `C[C@@H](c1ccc2nccn2c1)n1nnc2ncc(-c3cnn(C)c3)nc21` [Volitinib], for which the EC50 in the experiment with HuP-T4 was determined as 91.1 nM; in the experiment with Suit2-07, 285 nM; in the experiment on PANC-1 it was 3950 nM; in the experiment on Dan-G, 5780 nM; in the experiment on Colo-357, 226 nM; in the experiment on HPDE, 80 nM. Besides, the EC50 in the experiment on AsPC-1 is 114 nM; with BxPC-3, 2030 nM; with PaTu-8988-T, greater than 10000 nM; with MiaPaCa-2, 8640 nM; in the experiment on Capan-1, greater than 10000 nM; with FAMPAC, 1030 nM. For the same compound, the EC50 in the experiment with PSN-1 was 16.9 nM.

As to `Cc1ccc(Nc2nccc(N(C)c3ccc4c(C)n(C)nc4c3)n2)cc1S(N)(=O)=O` [Pazopanib], the concentration giving a half-maximal response (EC50) in the experiment on HuP-T4 is 135 nM; in the experiment with Suit2-07, greater than 10000 nM; with PANC-1, 913 nM; in the experiment on Dan-G, 4120 nM; in the experiment with Colo-357 it was greater than 10000 nM; in the experiment on HPDE it was 2410 nM. Also, the EC50 in the experiment on AsPC-1 was greater than 10000 nM; in the experiment on BxPC-3, greater than 10000 nM; in the experiment on PaTu-8988-T, 35.4 nM; in the experiment on MiaPaCa-2 it was 3820 nM; in the experiment with Capan-1 it was greater than 10000 nM; in the experiment with FAMPAC, 5020 nM. Besides, the EC50 in the experiment on PSN-1 was determined as 8400 nM.

By EC50 is commonly meant the concentration that produces a half-maximal response.
